Laboratory results published in BindingDB's records for patent US9278914 (University of Tennessee Research Foundation, 2016).

Target: Cytochrome P450 2C9 (Homo sapiens, UniProt P11712)
Assay: In Vitro CYP Inhibition Assay
Conditions: 37 °C

Sequence of Cytochrome P450 2C9 (P11712 whole entry): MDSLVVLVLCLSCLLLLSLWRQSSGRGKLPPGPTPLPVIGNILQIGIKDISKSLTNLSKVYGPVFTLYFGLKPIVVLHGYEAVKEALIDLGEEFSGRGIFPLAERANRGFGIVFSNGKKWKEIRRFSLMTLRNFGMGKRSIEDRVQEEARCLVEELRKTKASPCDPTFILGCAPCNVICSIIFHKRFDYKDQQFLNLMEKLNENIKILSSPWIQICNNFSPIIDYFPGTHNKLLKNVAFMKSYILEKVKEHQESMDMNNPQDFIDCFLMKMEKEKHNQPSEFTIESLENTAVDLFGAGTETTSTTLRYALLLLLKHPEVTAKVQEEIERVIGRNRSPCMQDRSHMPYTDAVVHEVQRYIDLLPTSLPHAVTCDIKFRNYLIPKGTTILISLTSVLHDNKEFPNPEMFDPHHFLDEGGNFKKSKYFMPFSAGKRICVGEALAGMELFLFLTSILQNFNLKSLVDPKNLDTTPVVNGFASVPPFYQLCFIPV

## C[C@](O)(COc1ccc(Cl)c(F)c1)C(=O)Nc1ccc(C#N)c(C(F)(F)F)c1 [US9278914, S-II]
  IC50: > 20 µM
